# Reference: ChEMBL document CHEMBL1201862, “PubChem BioAssay data set” (2004)
# The source made the active and inactive calls.
# How the values were obtained:
# [1] = biological target: Peroxisome proliferator-activated receptor gamma/Nuclear receptor coactivator 2 (Homo sapiens, UniProt P37231); assay type: functional;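 further: agonist potency for raising coactivator recruitment to the receptor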
# [2] = biological target: Peroxisome proliferator-activated receptor gamma/Nuclear receptor coactivator 1 (Homo sapiens, UniProt P37231); assay type: functional;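 further: agonist potency as compounds enhance coactivator SRC-1 recruitment to PPARgamma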
# [3] = biological target: Peroxisome proliferator-activated receptor gamma/Nuclear receptor coactivator 3 (Homo sapiens, UniProt P37231); assay type: functional;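 further: agonist potency for raising coactivator recruitment to the receptor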
# HeLa = test: viability loss in HeLa cells – cell-based, 24 h, cherry-picked samples, cytotoxicity control, dose response (AID 504726); assay type: functional; settings: Homo sapiens;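 further: potency for cytotoxicity as loss of luminescence signal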
# [4] = biological target: DNA dC->dU-editing enzyme APOBEC-3A (Homo sapiens, UniProt P31941); test: A3A deaminase inhibition for selectivity – biochemical, dose response (AID 504722); assay type: functional
# Large T antigen = Large T antigen (Simian virus 40, UniProt P03070); assay type: functional, Betapolyomavirus macacae;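 further: Confirmatory-stage PubChem screen for compounds that inhibit SV40 T antigen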
# [5] = biological target: DNA dC->dU-editing enzyme APOBEC-3G (Homo sapiens, UniProt Q9HC16); test: Dose Response confirmation of small molecule APOBEC3G DNA Deaminase Inhibitors via a fluorescence-based single-stranded DNA deaminase assay. [Related pubchem assays (depositor defined):AID493012, AID493028]; assay type: functional
# [6] = biological target: G-protein coupled receptor 55 (Homo sapiens, UniProt Q9Y2T6); test: inhibition of LPI-stimulated GPR55 beta-arrestin translocation – imaging, U2OS, beta-arrestin-GFP, LPI agonist, primary screen (AID 2013); assay type: functional;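 further: antagonist potency measured as reduced agonist-driven arrestin aggregation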
# [7] = biological target: T1, RNA-binding protein pos-1 (Caenorhabditis elegans, UniProt G5EF15); test: disruptors of C. elegans POS-1 RNA interaction – biochemical, fluorescence polarization, dose response (AID 1964);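 further: purified POS-1 fused to maltose binding protein made in E. coli; potency of compounds blocking POS-1 binding to fluorescent RNA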
# T1 sequence (G5EF15 whole entry): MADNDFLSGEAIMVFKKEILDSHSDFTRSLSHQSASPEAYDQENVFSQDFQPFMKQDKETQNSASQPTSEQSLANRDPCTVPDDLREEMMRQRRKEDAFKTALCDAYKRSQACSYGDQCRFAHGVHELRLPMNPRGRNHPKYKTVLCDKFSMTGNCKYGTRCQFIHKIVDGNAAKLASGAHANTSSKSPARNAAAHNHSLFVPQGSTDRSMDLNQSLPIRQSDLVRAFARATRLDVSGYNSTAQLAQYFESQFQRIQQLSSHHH
# [8] = biological target: T2, Zinc finger protein mex-5 (Caenorhabditis elegans, UniProt Q9XUB2); test: potency of MEX-5 RNA-binding blockers – biochemical, C. elegans, fluorescence polarization, dose response (AID 1960)
# T2 sequence (Q9XUB2 whole entry): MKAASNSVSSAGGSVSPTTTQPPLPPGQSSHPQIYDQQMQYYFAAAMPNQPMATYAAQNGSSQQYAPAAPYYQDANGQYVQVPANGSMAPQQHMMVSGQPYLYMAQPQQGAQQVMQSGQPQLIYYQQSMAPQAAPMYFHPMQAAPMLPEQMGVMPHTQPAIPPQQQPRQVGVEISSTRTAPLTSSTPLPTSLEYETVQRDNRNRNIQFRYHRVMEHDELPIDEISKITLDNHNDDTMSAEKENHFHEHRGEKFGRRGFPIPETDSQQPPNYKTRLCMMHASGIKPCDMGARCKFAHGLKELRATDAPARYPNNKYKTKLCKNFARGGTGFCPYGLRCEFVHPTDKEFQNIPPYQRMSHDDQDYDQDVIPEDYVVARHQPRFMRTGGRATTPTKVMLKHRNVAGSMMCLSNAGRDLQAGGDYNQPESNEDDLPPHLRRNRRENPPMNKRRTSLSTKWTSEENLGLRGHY
# [9] = biological target: T3, Heat shock factor protein 1 (Mus musculus, UniProt P38532); test: decrease of HSF1-responsive luciferase luminescence – cell-based, NIH3T3, dose retest, confirmation (AID 2382); assay type: functional;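 further: NIH3T3 fibroblasts with HSF1-driven luciferase reporter stressed by proteasome inhibitor MG132; luminescence from HSF1-driven luciferase expression after 8 hours of MG132 stress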
# T3 sequence (P38532 whole entry): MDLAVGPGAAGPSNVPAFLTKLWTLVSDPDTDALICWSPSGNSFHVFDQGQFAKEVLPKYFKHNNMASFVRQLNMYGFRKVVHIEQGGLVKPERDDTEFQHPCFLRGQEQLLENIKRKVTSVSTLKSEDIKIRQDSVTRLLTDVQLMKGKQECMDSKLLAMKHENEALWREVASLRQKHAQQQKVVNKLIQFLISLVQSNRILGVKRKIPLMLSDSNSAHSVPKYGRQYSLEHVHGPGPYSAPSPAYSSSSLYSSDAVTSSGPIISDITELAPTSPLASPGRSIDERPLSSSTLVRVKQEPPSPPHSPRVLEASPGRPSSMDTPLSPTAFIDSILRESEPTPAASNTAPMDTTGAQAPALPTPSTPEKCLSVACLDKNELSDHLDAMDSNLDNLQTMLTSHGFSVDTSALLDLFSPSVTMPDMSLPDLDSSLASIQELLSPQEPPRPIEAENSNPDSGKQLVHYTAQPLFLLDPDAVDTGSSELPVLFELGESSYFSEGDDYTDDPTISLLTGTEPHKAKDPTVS
# Mucolipin-3 = biological target: T4, Mucolipin-3 (Homo sapiens, UniProt Q8TDD5); test: Dose response cell-based high-throughput screening assay for agonists of the transient receptor potential channel ML3 (TRPML3). [Related pubchem assays: 1526, 1424, 1448 ]; assay type: functional
# T4 sequence (Q8TDD5 whole entry): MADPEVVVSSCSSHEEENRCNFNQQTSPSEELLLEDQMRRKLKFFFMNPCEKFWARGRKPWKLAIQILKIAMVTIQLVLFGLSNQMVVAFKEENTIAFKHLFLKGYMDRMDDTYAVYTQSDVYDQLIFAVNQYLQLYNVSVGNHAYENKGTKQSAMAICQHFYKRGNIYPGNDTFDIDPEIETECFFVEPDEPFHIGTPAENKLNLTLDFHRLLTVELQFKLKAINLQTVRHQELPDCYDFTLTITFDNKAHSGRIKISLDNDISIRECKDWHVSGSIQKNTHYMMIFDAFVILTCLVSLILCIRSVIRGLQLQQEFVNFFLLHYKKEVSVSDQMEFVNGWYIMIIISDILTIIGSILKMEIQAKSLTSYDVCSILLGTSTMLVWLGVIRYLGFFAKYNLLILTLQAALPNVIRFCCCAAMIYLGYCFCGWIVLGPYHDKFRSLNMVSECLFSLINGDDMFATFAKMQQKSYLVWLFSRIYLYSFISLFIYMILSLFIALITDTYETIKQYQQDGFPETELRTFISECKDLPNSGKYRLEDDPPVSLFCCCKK
# Ion channel NompC = Ion channel NompC (Danio rerio, UniProt Q7T1G6); test: Fluorescence counterscreen assay for TRPML3 agonists: dose response cell-based high-throughput screening assay to identify agonists of the transient receptor potential channel N1 (TRPN1). [Related pubchem assays: 1526, 1424, 1448 ]; assay type: functional
# Leucine aminopeptidase = biological target: T5, Leucine aminopeptidase (Plasmodium falciparum 3D7, UniProt Q8IL11); test: P. falciparum M17LAP inhibitors, primary screen, biochemical, fluorogenic H-Leu-NHMec substrate, 1536-well (AID 1619); assay type: functional
# T5 sequence (Q8IL11 whole entry): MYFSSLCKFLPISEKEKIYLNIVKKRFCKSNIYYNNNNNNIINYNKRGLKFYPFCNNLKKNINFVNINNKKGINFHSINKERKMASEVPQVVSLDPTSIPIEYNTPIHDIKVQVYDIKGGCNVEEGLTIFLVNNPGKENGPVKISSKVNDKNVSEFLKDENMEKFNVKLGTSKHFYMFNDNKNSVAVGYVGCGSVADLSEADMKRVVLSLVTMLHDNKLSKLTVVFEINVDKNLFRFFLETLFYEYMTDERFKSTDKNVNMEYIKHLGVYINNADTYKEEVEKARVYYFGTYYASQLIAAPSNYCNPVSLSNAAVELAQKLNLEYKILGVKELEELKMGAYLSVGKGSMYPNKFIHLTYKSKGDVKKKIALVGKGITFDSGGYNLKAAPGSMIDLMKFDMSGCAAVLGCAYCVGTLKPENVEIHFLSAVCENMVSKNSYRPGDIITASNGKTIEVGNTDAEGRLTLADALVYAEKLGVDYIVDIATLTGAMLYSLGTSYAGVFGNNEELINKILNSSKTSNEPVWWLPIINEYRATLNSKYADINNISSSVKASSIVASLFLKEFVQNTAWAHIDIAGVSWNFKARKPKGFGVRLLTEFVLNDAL
# HEK293 [10] = test: cells; assay type: functional, cell-based; settings: Homo sapiens
# [11] = biological target: Nucleotide-binding oligomerization domain-containing protein 2 (Homo sapiens, UniProt Q9HC29); test: inhibition of NOD2-driven NF-kB reporter – cell-based, luminescence, uHTS, HEK293 (AID 1566); assay type: functional
# HEK293 [12] = test: cells; assay type: functional, cell-based; settings: Homo sapiens; remark: listed apart in the source
# HEK293 [13] = test: inhibition of NOD1-driven NF-kB reporter – cell-based, luminescence, uHTS, primary screen (AID 1578); assay type: functional; settings: Homo sapiens
# HEK293 [14] = test: cells; assay type: functional, cell-based; settings: Homo sapiens; remark: listed apart in the source
# HEK293 [15] = test: NOD2 signaling inhibitors in MDP-stimulated cells, cell-based, uHTS, luminescence (AID 2001); assay type: functional; settings: Homo sapiens
# Sequence of Peroxisome proliferator-activated receptor gamma/Nuclear receptor coactivator 1 (P37231 whole entry): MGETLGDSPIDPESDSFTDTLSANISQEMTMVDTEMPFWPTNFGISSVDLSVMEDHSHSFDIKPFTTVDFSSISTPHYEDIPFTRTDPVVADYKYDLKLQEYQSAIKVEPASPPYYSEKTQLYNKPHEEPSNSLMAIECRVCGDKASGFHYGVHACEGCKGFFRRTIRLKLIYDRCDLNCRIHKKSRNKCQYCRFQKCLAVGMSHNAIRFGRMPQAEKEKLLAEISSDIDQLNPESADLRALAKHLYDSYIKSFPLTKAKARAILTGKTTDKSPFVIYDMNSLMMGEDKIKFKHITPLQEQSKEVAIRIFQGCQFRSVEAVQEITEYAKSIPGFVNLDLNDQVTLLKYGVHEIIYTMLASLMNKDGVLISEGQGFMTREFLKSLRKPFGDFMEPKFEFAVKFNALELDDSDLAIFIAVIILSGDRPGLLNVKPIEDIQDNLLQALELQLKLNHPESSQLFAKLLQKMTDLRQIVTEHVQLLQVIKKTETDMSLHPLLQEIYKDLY
# Sequence of Peroxisome proliferator-activated receptor gamma/Nuclear receptor coactivator 1 (Q15788 whole entry, further chain): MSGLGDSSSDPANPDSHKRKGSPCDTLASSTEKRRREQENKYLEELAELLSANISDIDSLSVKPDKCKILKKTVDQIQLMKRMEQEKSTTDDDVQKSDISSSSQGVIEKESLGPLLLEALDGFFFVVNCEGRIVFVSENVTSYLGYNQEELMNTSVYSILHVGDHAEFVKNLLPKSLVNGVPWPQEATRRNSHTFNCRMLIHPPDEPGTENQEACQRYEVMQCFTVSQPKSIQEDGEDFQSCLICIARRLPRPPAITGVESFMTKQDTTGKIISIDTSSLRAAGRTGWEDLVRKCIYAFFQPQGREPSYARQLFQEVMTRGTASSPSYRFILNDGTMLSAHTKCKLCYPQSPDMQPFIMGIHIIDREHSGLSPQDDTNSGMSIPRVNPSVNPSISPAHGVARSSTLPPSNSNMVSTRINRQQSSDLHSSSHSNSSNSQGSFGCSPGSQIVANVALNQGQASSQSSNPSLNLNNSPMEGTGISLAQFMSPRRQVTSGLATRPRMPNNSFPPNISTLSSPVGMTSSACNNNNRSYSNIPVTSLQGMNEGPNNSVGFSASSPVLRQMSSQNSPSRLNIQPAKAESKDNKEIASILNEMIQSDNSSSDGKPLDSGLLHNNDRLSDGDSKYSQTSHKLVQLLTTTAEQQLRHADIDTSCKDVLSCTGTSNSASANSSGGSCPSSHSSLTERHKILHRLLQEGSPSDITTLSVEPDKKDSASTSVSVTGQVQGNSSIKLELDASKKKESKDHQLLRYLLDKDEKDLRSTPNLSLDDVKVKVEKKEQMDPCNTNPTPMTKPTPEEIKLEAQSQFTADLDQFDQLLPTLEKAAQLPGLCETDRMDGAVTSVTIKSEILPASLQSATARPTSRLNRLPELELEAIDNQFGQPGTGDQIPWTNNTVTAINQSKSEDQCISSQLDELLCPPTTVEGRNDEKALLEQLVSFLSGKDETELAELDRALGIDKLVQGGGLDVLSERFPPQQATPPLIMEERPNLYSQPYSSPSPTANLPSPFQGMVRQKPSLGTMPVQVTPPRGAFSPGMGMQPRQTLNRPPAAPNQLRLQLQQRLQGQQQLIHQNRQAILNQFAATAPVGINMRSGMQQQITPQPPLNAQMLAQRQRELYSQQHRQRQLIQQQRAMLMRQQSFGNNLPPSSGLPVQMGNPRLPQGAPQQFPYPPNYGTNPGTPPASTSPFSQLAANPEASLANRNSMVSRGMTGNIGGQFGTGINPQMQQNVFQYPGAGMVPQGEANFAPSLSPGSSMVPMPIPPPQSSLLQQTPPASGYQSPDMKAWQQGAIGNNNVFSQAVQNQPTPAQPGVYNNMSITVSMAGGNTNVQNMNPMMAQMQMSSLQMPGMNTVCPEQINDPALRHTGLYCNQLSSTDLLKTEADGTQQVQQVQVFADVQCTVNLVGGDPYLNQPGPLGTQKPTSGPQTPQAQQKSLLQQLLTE
# Sequence of Peroxisome proliferator-activated receptor gamma/Nuclear receptor coactivator 3 (P37231 whole entry): as the sequence (P37231 whole entry) above
# Sequence of Peroxisome proliferator-activated receptor gamma/Nuclear receptor coactivator 3 (Q9Y6Q9 whole entry, further chain): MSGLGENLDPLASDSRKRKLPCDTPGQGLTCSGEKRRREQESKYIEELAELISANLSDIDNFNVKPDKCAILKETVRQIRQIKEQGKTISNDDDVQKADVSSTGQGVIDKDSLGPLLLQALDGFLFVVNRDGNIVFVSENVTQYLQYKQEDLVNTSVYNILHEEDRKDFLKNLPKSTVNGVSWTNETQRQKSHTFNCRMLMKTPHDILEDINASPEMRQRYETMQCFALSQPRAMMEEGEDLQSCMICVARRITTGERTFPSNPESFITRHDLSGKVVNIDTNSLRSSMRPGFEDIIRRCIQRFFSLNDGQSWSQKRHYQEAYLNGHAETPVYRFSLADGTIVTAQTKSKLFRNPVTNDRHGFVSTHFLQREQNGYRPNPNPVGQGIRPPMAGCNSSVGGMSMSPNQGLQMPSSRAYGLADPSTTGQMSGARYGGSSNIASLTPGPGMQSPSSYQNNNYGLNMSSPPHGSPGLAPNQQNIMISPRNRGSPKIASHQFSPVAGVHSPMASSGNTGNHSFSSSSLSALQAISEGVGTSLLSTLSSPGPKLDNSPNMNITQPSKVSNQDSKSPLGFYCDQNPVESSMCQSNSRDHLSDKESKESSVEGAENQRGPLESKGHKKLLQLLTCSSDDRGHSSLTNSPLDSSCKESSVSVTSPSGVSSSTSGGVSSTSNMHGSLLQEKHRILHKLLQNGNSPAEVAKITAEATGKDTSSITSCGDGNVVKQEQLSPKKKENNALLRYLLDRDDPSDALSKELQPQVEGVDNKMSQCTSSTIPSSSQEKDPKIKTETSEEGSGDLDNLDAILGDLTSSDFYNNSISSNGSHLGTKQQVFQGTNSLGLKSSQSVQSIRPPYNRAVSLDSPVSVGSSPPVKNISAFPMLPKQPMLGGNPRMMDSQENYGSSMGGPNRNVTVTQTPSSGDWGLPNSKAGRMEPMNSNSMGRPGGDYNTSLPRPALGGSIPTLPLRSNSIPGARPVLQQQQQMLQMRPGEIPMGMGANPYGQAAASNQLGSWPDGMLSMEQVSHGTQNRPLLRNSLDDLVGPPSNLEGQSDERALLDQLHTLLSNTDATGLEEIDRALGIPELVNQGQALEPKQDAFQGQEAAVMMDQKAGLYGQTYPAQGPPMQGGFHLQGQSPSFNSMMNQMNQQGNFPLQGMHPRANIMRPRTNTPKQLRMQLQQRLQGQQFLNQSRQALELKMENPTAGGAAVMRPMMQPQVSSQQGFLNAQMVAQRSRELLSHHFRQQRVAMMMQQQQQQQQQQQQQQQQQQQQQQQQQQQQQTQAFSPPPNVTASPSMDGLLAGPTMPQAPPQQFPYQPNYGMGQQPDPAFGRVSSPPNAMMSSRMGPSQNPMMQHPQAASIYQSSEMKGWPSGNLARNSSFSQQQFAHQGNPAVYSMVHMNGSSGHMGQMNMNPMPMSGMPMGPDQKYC
# Sequence of DNA dC->dU-editing enzyme APOBEC-3G (Q9HC16 whole entry): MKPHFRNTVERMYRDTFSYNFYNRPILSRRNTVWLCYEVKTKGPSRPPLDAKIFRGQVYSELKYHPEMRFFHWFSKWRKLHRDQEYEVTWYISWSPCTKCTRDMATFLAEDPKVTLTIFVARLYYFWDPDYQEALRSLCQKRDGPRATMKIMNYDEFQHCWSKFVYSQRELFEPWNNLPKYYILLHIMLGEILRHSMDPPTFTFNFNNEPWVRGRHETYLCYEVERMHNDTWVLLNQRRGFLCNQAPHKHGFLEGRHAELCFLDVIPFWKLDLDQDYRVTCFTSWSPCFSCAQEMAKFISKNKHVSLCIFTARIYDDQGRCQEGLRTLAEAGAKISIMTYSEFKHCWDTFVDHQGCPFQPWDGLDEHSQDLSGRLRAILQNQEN
# Sequence of DNA dC->dU-editing enzyme APOBEC-3A (P31941 whole entry): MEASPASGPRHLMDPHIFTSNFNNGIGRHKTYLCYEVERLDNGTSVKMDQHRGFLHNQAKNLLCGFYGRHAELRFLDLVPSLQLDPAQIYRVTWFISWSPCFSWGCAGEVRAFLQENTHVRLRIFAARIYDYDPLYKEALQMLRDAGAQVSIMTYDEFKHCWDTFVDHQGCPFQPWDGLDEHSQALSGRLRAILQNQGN
# Sequence of G-protein coupled receptor 55 (Q9Y2T6 whole entry, the tested form may be a part): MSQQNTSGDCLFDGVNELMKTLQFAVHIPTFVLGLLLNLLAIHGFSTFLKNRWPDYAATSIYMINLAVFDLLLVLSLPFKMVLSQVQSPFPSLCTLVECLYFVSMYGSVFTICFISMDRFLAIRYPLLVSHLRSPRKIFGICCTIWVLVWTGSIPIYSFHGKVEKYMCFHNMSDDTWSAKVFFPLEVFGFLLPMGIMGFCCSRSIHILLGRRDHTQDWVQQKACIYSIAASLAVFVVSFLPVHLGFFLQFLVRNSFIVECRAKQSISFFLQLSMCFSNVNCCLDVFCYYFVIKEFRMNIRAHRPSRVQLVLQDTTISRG
smiles,measurement,setting,value
Cn1ncc([N+](=O)[O-])c1C(=O)N/N=C/c1ccc(F)cc1,EC50,[1],> 79.4 µM (not active)
same,EC50,[2],> 79.4 µM (not active)
same,EC50,[3],> 79.4 µM (not active)
CCOC(=O)c1c(C)n(C)c2ccc(OCCN(C)C)cc12,AC50,HeLa,> 350 µM (inactive)
COc1cc(/C=N/n2c(S)nnc2-c2[nH]nc3c2CCC3)ccc1O,IC50,[4],> 100 µM (inactive)
same,IC50,Large T antigen,7.5 µM (active)
same,IC50,[5],1.56 µM (active)
Cc1ccc(/C=C2/C(=O)NC(=O)N(CCc3ccc(F)cc3)C2=O)o1,IC50,[6],4.5 µM (active)
same,EC50,[7],> 300 µM (not active)
same,EC50,[8],290 µM (active)
CCOC(=O)C1CCN(CCC(=O)Nc2ccc(C)c(C)c2)CC1,EC50,[1],> 79.4 µM (not active)
same,EC50,[2],> 79.4 µM (not active)
same,EC50,[3],> 79.4 µM (not active)
COc1cccc2cc(-c3n[nH]c(=S)n3C)oc12,IC50,[4],> 100 µM (inactive)
same,IC50,[5],2.18 µM (active)
Cc1ccc(S(=O)(=O)N2CCC(C)CC2)cc1[N+](=O)[O-],EC50,[9],> 195 µM (not active)
same,EC50,Mucolipin-3,3.51 µM (active)
same,EC50,Ion channel NompC,> 29.9 µM (not active)
CC(C)[C@H](NC(=O)OC(C)(C)C)c1nnc(SCc2cccc(F)c2)o1,EC50,[1],24 µM (not active)
same,EC50,[2],8.46 µM (active)
same,EC50,[3],16.9 µM (not active)
CC1CC(C)CN(C(=O)c2ccc3ncsc3c2)C1 (stereo not drawn),AC50,HeLa,95.4 µM (active)
CC(Sc1nc2ccccc2s1)C(=O)Nc1nnc(C(C)C)s1 (stereo not drawn),EC50,[9],> 195 µM (not active)
same,IC50,Leucine aminopeptidase,2.84 µM (active)
same,AC50,HeLa,> 350 µM (inactive)
Cc1cc(C(=O)COc2cccnc2[N+](=O)[O-])c(C)n1Cc1cccs1,IC50,HEK293 [10],> 20 µM (inactive)
same,EC50,[11],8.89 µM (active)
same,IC50,HEK293 [12],> 20 µM (inactive)
same,EC50,HEK293 [13],> 20 µM (inactive)
same,IC50,HEK293 [14],> 20 µM (inactive)
same,IC50,HEK293 [15],> 20 µM (inactive)
COc1ccc(C(=O)Nc2ccc(S(=O)(=O)N3CCCCC3C)cc2)c(OC)c1OC (stereo not drawn),EC50,Mucolipin-3,1.78 µM (active)
same,EC50,Ion channel NompC,> 29.9 µM (not active)
